Data: PubChem BioAssay (NCI)
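These data come from cells grown in 96-well plates and exposed to compound for 48 hours at five concentrations. GI50: concentration for 50% inhibition of growth. TGI: total growth inhibition.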

Key:
Test in all cases: NCI-60 cell line screen, 48 h
RPMI-8226 leukemia = system: RPMI-8226 leukemia
MDA-N = system: MDA-N
DLD-1 colon = system: DLD-1 colon
DMS 273 small cell lung = system: DMS 273 small cell lung
HOP-18 NSCLC = system: HOP-18 NSCLC
KM20L2 colon = system: KM20L2 colon
LXFL 529 NSCLC = system: LXFL 529 NSCLC
RXF-631 renal = system: RXF-631 renal
XF 498 CNS = system: XF 498 CNS
M19-MEL melanoma = system: M19-MEL melanoma
SNB-78 CNS = system: SNB-78 CNS
DMS 114 small cell lung = system: DMS 114 small cell lung

| Compound | GI50 (RPMI-8226 leukemia) | TGI (RPMI-8226 leukemia) | also measured |
| --- | --- | --- | --- |
| O=C(NC1CCN(Cc2ccccc2)CC1)c1cc(-c2ccncc2)nc2ccc(Cl)cc12 | 12.4 µM | > 74 µM |  |
| CCc1nc(N)nc(N)c1-c1ccc(NCCN)c([N+](=O)[O-])c1 |  | > 88.8 µM | TGI (MDA-N): > 100 µM |
| Cn1cc(-c2ccc3c(Nc4cccc(NC(=O)Nc5cccc(F)c5)c4)ncnc3c2)cn1 | 1.53 µM | 4.65 µM |  |
| CC(NS(=O)(=O)c1ccc([N+](=O)[O-])cc1)C(=O)O (stereo not given) |  | > 100 µM | TGI (DLD-1 colon): > 100 µM; TGI (DMS 273 small cell lung): > 100 µM; TGI (HOP-18 NSCLC): > 100 µM; TGI (KM20L2 colon): > 100 µM; TGI (LXFL 529 NSCLC): > 100 µM; TGI (RXF-631 renal): > 100 µM; TGI (XF 498 CNS): > 100 µM |
| COC(=O)CCC(=O)C(=O)OC | 17200 µM | 51200 µM |  |
| COc1cccc(C2c3cc4c(cc3OC(C)(N3CCCC3)C2C)OCO4)c1OC (stereo not given) |  | > 100 µM | TGI (MDA-N): 34.7 µM |
| Nc1ccc2c(c1)C(=O)C(=O)c1c-2nc2ccccn12 | 1.8 µM | 4.71 µM |  |
| COc1ccccc1NC(=O)c1sc2nc3c(cc2c1N)C(=O)CCC3 | > 100 µM | > 100 µM |  |
| C/C(CN1C(=O)c2ccccc2C1=O)=N\NS(=O)(=O)c1ccc(C)cc1 |  | > 100 µM | TGI (DLD-1 colon): > 100 µM; TGI (DMS 273 small cell lung): > 100 µM; TGI (HOP-18 NSCLC): > 100 µM; TGI (KM20L2 colon): > 100 µM; TGI (LXFL 529 NSCLC): > 100 µM; TGI (M19-MEL melanoma): > 100 µM; TGI (SNB-78 CNS): > 100 µM |
| CN1N=CSC12C(=O)N(c1ccc(Cl)cc1)C(=O)N2c1ccc(Cl)cc1 (stereo not given) |  | 7.21 µM | TGI (DLD-1 colon): > 100 µM; TGI (HOP-18 NSCLC): 69.7 µM; TGI (KM20L2 colon): > 100 µM; TGI (LXFL 529 NSCLC): > 100 µM; TGI (M19-MEL melanoma): > 100 µM; TGI (SNB-78 CNS): > 100 µM |
| CCCCCCCCCCCCNC(C)=O |  | 30.7 µM | TGI (MDA-N): 31 µM |
| Cc1nc(-c2cccc(Nc3nc(-c4ccc(Cl)cc4)cs3)c2)cs1 | 21.3 µM | > 50 µM |  |
| CCCCON(OC(=O)c1ccccc1)C(=O)c1ccccc1 | > 100 µM | > 100 µM |  |
| CC(=O)NCCc1c2c(c3nccc4c3c1Nc1ccccc1-4)OCS2 | 0.895 µM |  | GI50 (MDA-N): 1.45 µM; TGI (MDA-N): 15.5 µM |
| N#Cc1c(-c2ccccc2)nc(SCC2CO2)nc1N1CCOCC1 (stereo not given) | 9.41 µM | 72.9 µM |  |
| OC(c1cccc(-n2ccc(C(F)(F)F)n2)c1)c1cnccc1NC1CCCCCC1 (stereo not given) | 1.57 µM | 4.51 µM |  |
| FC(F)(F)Oc1cccc(-c2cnc3ccc(-c4ccncc4)nn23)c1 | 1.31 µM | 4.84 µM |  |
| COc1cc2c(cc1O)CC[C@@H]1[C@@H]2CC[C@]2(C)[C@@H](NCCN(C)C)CC[C@@H]12 | 0.159 µM | 0.665 µM |  |
| CCOC(=O)Nc1cc2nnc(-c3ccccc3)nc2c(N)n1 |  | 74.3 µM | TGI (DLD-1 colon): > 100 µM; TGI (DMS 114 small cell lung): > 100 µM; TGI (KM20L2 colon): 20.4 µM; TGI (LXFL 529 NSCLC): > 100 µM; TGI (M19-MEL melanoma): > 100 µM; TGI (XF 498 CNS): > 100 µM |
| CC1(C)N=C(N)N=C(N)N1c1cccc(CCCCc2cccc(S(=O)(=O)F)c2)c1 | 2.31 µM | 35.2 µM |  |
| COc1cc(C(=O)/C=C/c2c(C)n([O-])c3ccc(C)cc3[n+]2=O)cc(OC)c1OC | 2.87 µM | 17.6 µM |  |
